Key:
[1] = system: ECHCG: Echinochloa crus-galli; experiment: Pre-emergence herbicide efficacy at 80 g/ha, ECHCG; assay type: in vivo; conditions: scored visually after about 3 weeks
From the text: Seeds of monocotyledonous and dicotyledonous weed plants and crop plants were placed in plastic or organic planting pots and covered with soil. The compounds of the invention, formulated in the form of wettable powders (WP) or as emulsion concentrates (EC), were then applied to the surface of the covering soil as aqueous suspension or emulsion with addition of 0.5% additive at a water application rate equivalent to 600 l/ha. After the treatment, the pots were placed in a greenhouse and kept under good growth conditions for the test plants. After about 3 weeks, the efficacy of the preparations was scored visually in comparison with untreated controls as percentages. For example, 100% activity=the plants have died, 0% activity=like control plants. Tables D1 to D12 below show the effects of selected compounds of the general formula (I) according to Table 1 on various harmful plants and an application rate corresponding to 80 g/ha, which were obtained by the experimental procedure mentioned above.

[2] = system: DIGSA: Digitaria sanguinalis; experiment: Pre-emergence herbicide efficacy at 1280 g/ha, DIGSA; assay type: in vivo; conditions: visual scoring after about 3 weeks vs untreated controls
Outline: (§1)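 Efficacy is a visual percentage rating against untreated controls, taken about 3 weeks after soil-surface application to freshly sown, soil-covered seeds in sandy loam.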

[3] = system: ECHCG: Echinochloa crus-galli; experiment: Pre-emergence herbicide efficacy at 1280 g/ha, ECHCG; assay type: in vivo; conditions: visual scoring after about 3 weeks vs untreated controls
Outline: as §1

POLCO [4] = experiment: Pre-emergence herbicide efficacy at 80 g/ha, POLCO; assay type: in vivo; conditions: Polygonum convolvulus, scored visually after about 3 weeks
Outline: (§2)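 Applied to the soil surface directly after sowing, before emergence, as an aqueous WP or EC preparation containing 0.5% additive. Percent efficacy was rated by eye about 3 weeks later in the greenhouse.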

VERPE: Veronica persica [5] = experiment: Post-emergence herbicidal efficacy at 80 g/ha, VERPE; assay type: in vivo; conditions: visual rating about 3 weeks after treatment vs untreated controls
Outline: (§3)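 Activity is a visual score relative to untreated plants, taken about 3 weeks after treatment, where 100% means plant death and 0% means no difference from control. Weeds in sandy loam were sprayed at the one-leaf stage with an aqueous WP or EC preparation carrying 0.5% additive at 600 l/ha.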

VIOTR: Viola tricolor = experiment: Post-emergence herbicidal efficacy at 80 g/ha, VIOTR; assay type: in vivo; conditions: visual rating about 3 weeks after treatment vs untreated controls
Description: (§4) Seeds of monocotyledonous and dicotyledonous weeds and crop plants were placed in sandy loam in plastic or organic planting pots, covered with soil and cultivated in a greenhouse under controlled growth conditions. 2 to 3 weeks after sowing, the test plants were treated at the one-leaf stage. The compounds of the invention, formulated in the form of wettable powders (WP) or as emulsion concentrates (EC), were then sprayed onto the green parts of the plants as aqueous suspension or emulsion with addition of 0.5% additive at a water application rate of 600 l/ha (converted). After the test plants had been kept in the greenhouse under optimum growth conditions for about 3 weeks, the activity of the preparations was rated visually in comparison to untreated controls. For example, 100% activity=the plants have died, 0% activity=like control plants. Tables B1 to B10 below show the effects of selected compounds of the general formula (I) according to Table 1 on various harmful plants and an application rate corresponding to 80 g/ha, which were obtained by the experimental procedure mentioned above.

KCHSC: Kochia scoparia [6] = experiment: Post-emergence herbicidal efficacy at 1280 g/ha, KCHSC; assay type: in vivo; conditions: visual rating about 3 weeks after treatment vs untreated controls
Outline: (§5)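 Weeds grown in sandy loam in the greenhouse were sprayed at the one-leaf stage, 2 to 3 weeks after sowing, with WP or EC formulations in water plus 0.5% additive at 600 L/ha. Damage was scored visually about 3 weeks later against untreated controls (0% = like control, 100% = plants dead).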

[7] = system: AMARE: Amaranthus retroflexus; experiment: Post-emergence herbicidal efficacy at 1280 g/ha, AMARE; assay type: in vivo; conditions: rated visually after about 3 weeks vs untreated controls, 100% = plants have died, 0% = like control plants
Outline: as §5

SETVI: Setaria viridis = experiment: Pre-emergence herbicide efficacy at 80 g/ha, SETVI; assay type: in vivo; conditions: scored visually after about 3 weeks
Outline: as §2

[8] = system: AMARE: Amaranthus retroflexus; experiment: Pre-emergence herbicide efficacy at 1280 g/ha, AMARE; assay type: in vivo; conditions: visual scoring after about 3 weeks vs untreated controls
Outline: as §1

VERPE: Veronica persica [9] = experiment: Pre-emergence herbicide efficacy at 80 g/ha, VERPE; assay type: in vivo; conditions: scored visually after about 3 weeks
Outline: as §2

[10] = system: DIGSA: Digitaria sanguinalis; experiment: Post-emergence herbicidal efficacy at 1280 g/ha, DIGSA; assay type: in vivo; conditions: rated visually after about 3 weeks vs untreated controls, 100% = plants have died, 0% = like control plants
Outline: as §5

[11] = system: MATIN: Matricaria inodora; experiment: Pre-emergence herbicide efficacy at 1280 g/ha, MATIN; assay type: in vivo; conditions: visual scoring after about 3 weeks vs untreated controls
Outline: as §1

[12] = system: AMARE: Amaranthus retroflexus; experiment: Post-emergence herbicidal efficacy at 80 g/ha, AMARE; assay type: in vivo; conditions: visual rating about 3 weeks after treatment vs untreated controls
Outline: as §3

STEME: Stellaria media [13] = experiment: Pre-emergence herbicide efficacy at 1280 g/ha, STEME; assay type: in vivo; conditions: visual scoring vs untreated controls
Outline: as §1

[14] = system: ABUTH: Abutilon theophrasti; experiment: Post-emergence herbicidal efficacy at 1280 g/ha, ABUTH; assay type: in vivo; conditions: rated visually after about 3 weeks vs untreated controls, 100% = plants have died, 0% = like control plants
Outline: as §5

LOLRI: Lolium rigidum = experiment: Pre-emergence herbicide efficacy at 1280 g/ha, LOLRI; assay type: in vivo; conditions: visual scoring after about 3 weeks vs untreated controls
Outline: as §1

STEME: Stellaria media [15] = experiment: Post-emergence herbicidal efficacy at 1280 g/ha, STEME; assay type: in vivo; conditions: visual rating about 3 weeks after treatment vs untreated controls
Outline: as §5

VERPE: Veronica persica [16] = experiment: Pre-emergence herbicide efficacy at 1280 g/ha, VERPE; assay type: in vivo; conditions: visual scoring vs untreated controls
Outline: as §1

POLCO [17] = experiment: Post-emergence herbicidal efficacy at 80 g/ha, POLCO; assay type: in vivo, Polygonum convolvulus; conditions: visual rating about 3 weeks after treatment vs untreated controls
Description: as §4

POAAN: Poa annua = experiment: Post-emergence herbicidal efficacy at 1280 g/ha, POAAN; assay type: in vivo; conditions: visual rating about 3 weeks after treatment vs untreated controls
Outline: as §5

[18] = system: ALOMY: Alopecurus myosuroides; experiment: Pre-emergence herbicide efficacy at 1280 g/ha, ALOMY; assay type: in vivo; conditions: visual scoring after about 3 weeks vs untreated controls
Outline: as §1

KCHSC: Kochia scoparia [19] = experiment: Pre-emergence herbicide efficacy at 1280 g/ha, KCHSC; assay type: in vivo; conditions: visual scoring after about 3 weeks vs untreated controls
Outline: as §1

KCHSC: Kochia scoparia [20] = experiment: Post-emergence herbicidal efficacy at 80 g/ha, KCHSC; assay type: in vivo; conditions: visual rating about 3 weeks after treatment vs untreated controls
Description: as §4

Row | Structure (SMILES) | Pre-emergence efficacy against ECHCG in % [1] | Pre-emergence efficacy against DIGSA [2] | Pre-emergence efficacy against ECHCG [3] | Pre-emergence efficacy against POLCO in % (POLCO [4]) | Post-emergence efficacy against VERPE (VERPE: Veronica persica [5]) | Post-emergence efficacy against VIOTR (VIOTR: Viola tricolor) | Post-emergence efficacy against KCHSC (KCHSC: Kochia scoparia [6]) | Post-emergence efficacy at 1280 g/ha against AMARE in % [7] | Pre-emergence efficacy against SETVI in % (SETVI: Setaria viridis) | Pre-emergence efficacy against AMARE [8] | Pre-emergence efficacy against VERPE in % (VERPE: Veronica persica [9]) | Post-emergence efficacy at 1280 g/ha against DIGSA in % [10] | Pre-emergence efficacy against MATIN [11] | Post-emergence efficacy against AMARE [12] | Pre-emergence efficacy against STEME in % (STEME: Stellaria media [13]) | Post-emergence efficacy at 1280 g/ha against ABUTH in % [14] | Pre-emergence efficacy against LOLRI (LOLRI: Lolium rigidum) | Post-emergence efficacy against STEME (STEME: Stellaria media [15]) | Pre-emergence efficacy against VERPE in % (VERPE: Veronica persica [16]) | Post-emergence efficacy against POAAN (POAAN: Poa annua) | other results
1 | Fc1cnc(Oc2cccc(Br)c2Cc2ncc(Cl)cn2)nc1 [Example 1-54] | 100% | 100% | 100% | 80% | 100% | 100% | 100% | 100% | 100% | 100% | 90% | 90% | 100% | 100% | 100% | 100% | 100% | 100% | 100% | 100% | Post-emergence efficacy against POLCO (POLCO [17]): 80%; Pre-emergence efficacy against ALOMY [18]: 90%; Pre-emergence efficacy against KCHSC (KCHSC: Kochia scoparia [19]): 100%
2 | Clc1cnc(Cc2c(Cl)cccc2Oc2ncc(Cl)cn2)nc1 [Example 1-56] | 80% | 100% | 100% | 90% | 100% | 100% | 90% | 90% | 100% | 100% | 90% | 90% | 100% | 100% | 100% | 90% | 100% | 90% | 100% | 90% | Post-emergence efficacy against KCHSC (KCHSC: Kochia scoparia [20]): 80%; Post-emergence efficacy against POLCO (POLCO [17]): 80%; Pre-emergence efficacy against ALOMY [18]: 100%; Pre-emergence efficacy against KCHSC (KCHSC: Kochia scoparia [19]): 100%
3 | N#Cc1cccc(Oc2ncc(F)cn2)c1Cc1ncc(Cl)cn1 [Example 1-59] | 100% | 100% | 100% | 90% | 90% | 100% | 100% | 100% | 100% | 100% | 90% | 100% | 100% | 100% | 100% | 100% | 100% | 100% | 100% | 100% | Post-emergence efficacy against KCHSC (KCHSC: Kochia scoparia [20]): 90%; Pre-emergence efficacy against ALOMY [18]: 100%; Pre-emergence efficacy against KCHSC (KCHSC: Kochia scoparia [19]): 100%
4 | FC(F)c1cc(-c2ccccc2Cc2ncc(Cl)cn2)on1 [Example 1-133] | 80% | 100% | 100% | 80% | 100% | 100% | 100% | 100% | 100% | 100% | 90% | 100% | 100% | 100% | 100% | 100% | 90% | 100% | 100% | 100% | Post-emergence efficacy against KCHSC (KCHSC: Kochia scoparia [20]): 100%; Post-emergence efficacy against POLCO (POLCO [17]): 100%; Pre-emergence efficacy against ALOMY [18]: 100%; Pre-emergence efficacy against KCHSC (KCHSC: Kochia scoparia [19]): 100%

Reference: patent US20250221410A1, “SUBSTITUTED 2-C-AZINES AND SALTS THEREOF, AND USE THEREOF AS HERBICIDAL ACTIVE SUBSTANCES” (BAYER AKTIENGESELLSCHAFT, priority 2022, published 2025)
